The values that follow come from ChEMBL document CHEMBL5154794, “Design, synthesis and biological evaluation of protease inhibitors containing morpholine cores with remarkable potency against both HIV-1 subtypes B and C” (Eur J Med Chem, 2022).

Data set [1] is described as follows: Cytotoxicity against human HEK-293T cells after 24 hrs by CCK-8 assay. Type of data set: toxicity, cell-based.
Data set [2] deals with Human immunodeficiency virus 1. Put plainly: Antiviral activity against wild type HIV1 NL4-3. Type of data set: functional, organism-based. The note with it: Human immunodeficiency virus 1, NL4-3.
Data set [3] relates to Human immunodeficiency virus 1. Description: Antiviral activity against DRV resistant HIV1. The format is functional, organism-based.
The test system of data set [4] is Human immunodeficiency virus 1. Put plainly: Antiviral activity against HIV1 subtype C isolate ZM246. Type of data set: functional, organism-based. The note with it: Human immunodeficiency virus 1, subtype C isolate ZM246.
The test system of data set [5] is Human immunodeficiency virus 1. Description: Antiviral activity against HIV1 subtype C isolate Indie. The format is functional, organism-based. The note with it: Human immunodeficiency virus 1, subtype C isolate Indie.
Data set [6] concerns Human immunodeficiency virus 1. Put plainly: Antiviral activity against HIV1 NL4-3 Env-deficient VSV-G pseudotyped virus infected in human SUP-T1 cells assessed as inhibition of late stage viral production at 100 nM measured after 48 hrs by luciferase assay relative to control. The format is functional. The note with it: Human immunodeficiency virus 1, NL4-3, SUP-T1.
In data set [7] the target is Human immunodeficiency virus type 1 protease (Human immunodeficiency virus 1, UniProt Q72874). Put plainly: Inhibition of HIV-1 protease using Arg-Glu (EDANS)-Ser-Gln-Asn-Tyr-Pro-lle-Val-Gln-Lys (DABCYL)-Arg as substrate preincubated for 20 to 30 mins followed by substrate addition and measured by FRET assay.
The test system of data set [8] is HIV-1 protease. Put plainly: Selectivity index, ratio IC50 for cytotoxicity against human HEK-293T cells over IC50 for inhibition of HIV-1 protease. Type of data set: toxicity, cell-based. The settings on record: read-out: Ratio CC50/IC50.
A short description of data set [9]: Selectivity index, ratio EC50 for Antiviral activity against DRV resistant HIV1 over EC50 for wild type HIV1 NL4-3.
Data set [10] concerns Human immunodeficiency virus 1. Description: Antiviral activity against HIV1 NL4-3 Env-deficient VSV-G pseudotyped virus infected in human SUP-T1 cells assessed as inhibition of late stage viral production at 10 uM measured after 48 hrs by luciferase assay relative to control. The settings on record: Human immunodeficiency virus 1, NL4-3, SUP-T1. The format is functional.

SMILES strings stand for the structures.

`CC(C)CN(C[C@@H](O)[C@H](Cc1ccccc1)NC(=O)O[C@H]1CO[C@H]2OCC[C@H]21)S(=O)(=O)c1ccc(N)cc1`: in data set [1], the CC50 at 24 h was over 200000 nM. Moreover, the EC50 was found to be 1.9 nM in data set [2], 110 nM in [3], 2.01 nM in [4] and 1.26 nM in data set [5]. Further, the inhibition at 0.1 µM in data set [6] came out at 100%.

In data set [7], `CC(C)CN(C[C@@H](O)[C@H](Cc1ccccc1)NC(=O)OC[C@H]1CNCCO1)S(=O)(=O)c1ccc(O)cc1` yielded a 50% inhibitory concentration (IC50) of 1.9 nM. The compound further came in with a half-maximal cytotoxic concentration (CC50) at 24 h in data set [1] of over 200000 nM. The selectivity ratio in [8] is over 105000.

`CNc1ccc(S(=O)(=O)N(CC(C)C)C[C@@H](O)[C@H](Cc2ccccc2)NC(=O)[C@H]2CNCCO2)cc1` showed an IC50 in data set [7] of 90.2 nM. In data set [1], this compound registered a CC50 at 24 h of over 200000 nM. The selectivity ratio in [8] was over 2220.

Regarding `CC(C)CN(C[C@@H](O)[C@H](Cc1ccccc1)NC(=O)OC[C@H]1CN(C)CCO1)S(=O)(=O)c1ccc(NO)cc1`, the IC50 in [7] was 13.9 nM. In [1], this compound returned a half-maximal cytotoxic concentration (CC50) at 24 h of over 200000 nM. Moreover, the selectivity ratio in [8] is over 14400.

In turn, `CC(C)CN(C[C@@H](O)[C@H](Cc1ccccc1)NC(=O)[C@@H]1COCCN1)S(=O)(=O)c1ccc(N)cc1` had an IC50 in data set [7] of 31.3 nM. Further, the cytotoxic concentration (CC50) at 24 h in data set [1] is over 200000 nM. For the same compound, the selectivity ratio in [8] is over 6390.

As to `COc1ccc(S(=O)(=O)N(CC(C)C)C[C@@H](O)[C@H](Cc2ccccc2)NC(=O)[C@@H]2COCCN2)cc1`, the “Ratio EC50” value in data set [9] is 9. In [7], this compound registered an IC50 of 0.39 nM. For the same compound, the CC50 at 24 h in data set [1] was over 200000 nM. For the same compound, the selectivity ratio in [8] was over 513000. In addition, the inhibition at 10 µM in [10] turned out to be 100%. The EC50 in data set [2] came to 340 nM; in [3] it was 3190 nM.

Turning to `CC(C)CN(C[C@@H](O)[C@H](Cc1ccccc1)NC(=O)[C@@H]1COCCN1)S(=O)(=O)c1ccc(O)cc1`, the “Ratio EC50” value in [9] is on record as 14. For the same compound, inhibition in data set [7] was half-maximal at 0.09 nM (IC50). This compound had a half-maximal cytotoxic concentration (CC50) at 24 h in data set [1] of over 200000 nM. In data set [8], the selectivity ratio was over 2.22e+06. Also, in data set [10], the inhibition at 10 µM is 100%. In addition, the EC50 in data set [2] was 89 nM; in data set [3], 1290 nM; in data set [4], 13.6 nM; in data set [5], 8.23 nM.

For the compound `CC(C)CN(C[C@@H](O)[C@H](Cc1ccccc1)NC(=O)[C@@H]1COCCN1C)S(=O)(=O)c1ccc(O)cc1`, the “Ratio EC50” value in data set [9] amounted to 13. The compound also displayed an IC50 in data set [7] of 1.2 nM. The compound also displayed a CC50 at 24 h in data set [1] of 135000 nM. Also, in data set [8], the selectivity ratio was 113000. Further, the inhibition at 10 µM in data set [10] was 100%. The 50% effective concentration (EC50) in data set [2] came to 170 nM; in data set [3] it was 2200 nM.

`COc1ccc(S(=O)(=O)N(CC(C)C)C[C@@H](O)[C@H](Cc2ccccc2)NC(=O)OC[C@H]2CN(C)CCO2)cc1` came in with an IC50 in [7] of 2.25 nM. Moreover, the CC50 at 24 h in data set [1] was over 200000 nM. Also, the selectivity ratio in data set [8] is over 88900. Besides, the inhibition at 10 µM in [10] was found to be 100%.

Turning to `CC(C)CN(C[C@@H](O)[C@H](Cc1ccccc1)NC(=O)OC[C@H]1CN(C)CCO1)S(=O)(=O)c1ccc(O)cc1`, inhibition in data set [7] was half-maximal at 1.54 nM (IC50). Moreover, in data set [1], the half-maximal cytotoxic concentration (CC50) at 24 h was over 200000 nM. In data set [8], the selectivity ratio was over 130000.

Turning to `CC(C)CN(C[C@@H](O)[C@H](Cc1ccccc1)NC(=O)OC[C@H]1CNCCO1)S(=O)(=O)c1ccc(NO)cc1`, the IC50 in [7] was 2.45 nM. The compound also yielded a CC50 at 24 h in data set [1] of over 200000 nM. Besides, the selectivity ratio in [8] is over 81600.

For the compound `CC(C)CN(C[C@@H](O)[C@H](Cc1ccccc1)NC(=O)[C@@H]1COCCN1)S(=O)(=O)c1ccc(NO)cc1`, 2.99 nM corresponded to half-maximal inhibition in data set [7] (IC50). The compound further showed a CC50 at 24 h in data set [1] of 145000 nM. Further, the selectivity ratio in data set [8] is 48400. Also, the inhibition at 10 µM in data set [10] was found to be 93%.

As for `COc1ccc(S(=O)(=O)N(CC(C)C)C[C@@H](O)[C@H](Cc2ccccc2)NC(=O)OC[C@H]2CNCCO2)cc1`, the IC50 in data set [7] turned out to be 0.67 nM. In data set [1], this compound registered a cytotoxic concentration (CC50) at 24 h of over 200000 nM. For the same compound, the selectivity ratio in data set [8] is over 299000. The inhibition at 10 µM in [10] is 100%.

In the case of `CC(C)CN(C[C@@H](O)[C@H](Cc1ccccc1)NS(=O)(=O)N1CCOCC1)S(=O)(=O)c1ccc(N)cc1`, inhibition in data set [7] was half-maximal at 35.2 nM (IC50). This compound also displayed a cytotoxic concentration (CC50) at 24 h in data set [1] of 101000 nM. Further, the selectivity ratio in data set [8] was determined as 2860.

As for `CC(C)CN(C[C@@H](O)[C@H](Cc1ccccc1)NC(=O)CN1CCS(=O)(=O)CC1)S(=O)(=O)c1ccc(NO)cc1`, the IC50 in data set [7] is 47.4 nM. This compound had a CC50 at 24 h in data set [1] of over 200000 nM. The selectivity ratio in data set [8] is over 4220.

In data set [7], `CC(C)CN(C[C@@H](O)[C@H](Cc1ccccc1)NC(=O)[C@H]1CNCCO1)S(=O)(=O)c1ccc(O)cc1` displayed an IC50 of 5.65 nM. The same compound had a CC50 at 24 h in [1] of over 200000 nM. For the same compound, the selectivity ratio in data set [8] was over 35400.

In the case of `COc1ccc(S(=O)(=O)N(CC(C)C)C[C@@H](O)[C@H](Cc2ccccc2)NC(=O)[C@@H]2COCCN2C)cc1`, the “Ratio EC50” value in data set [9] is 6. The compound also showed a concentration for half-maximal inhibition (IC50) in data set [7] of 4.83 nM. For the same compound, it took 132000 nM to reach half-maximal cytotoxicity in [1] (CC50 at 24 h). Moreover, the selectivity ratio in data set [8] amounted to 27300. Moreover, in data set [10], the inhibition at 10 µM stood at 100%. Further, the EC50 is 350 nM in data set [2] and 1990 nM in data set [3].

Regarding `COc1ccc(S(=O)(=O)N(CC(C)C)C[C@@H](O)[C@H](Cc2ccccc2)NC(=O)CN2CCS(=O)(=O)CC2)cc1`, the IC50 in data set [7] worked out at 24.3 nM. The CC50 at 24 h in data set [1] was over 200000 nM. Further, the selectivity ratio in [8] was over 8230.

Consider `COc1ccc(S(=O)(=O)N(CC(C)C)C[C@@H](O)[C@H](Cc2ccccc2)NC(=O)[C@H]2CNCCO2)cc1`, for which 11.7 nM corresponded to half-maximal inhibition in [7] (IC50). In addition, the 50% cytotoxic concentration (CC50) at 24 h in data set [1] was over 200000 nM. In addition, the selectivity ratio in data set [8] was over 17200.

In data set [7], `CNc1ccc(S(=O)(=O)N(CC(C)C)C[C@@H](O)[C@H](Cc2ccccc2)NC(=O)[C@@H]2COCCN2)cc1` gave a half-maximal inhibitory concentration (IC50) of 95.8 nM. The same compound registered a CC50 at 24 h in data set [1] of over 200000 nM. Besides, the selectivity ratio in data set [8] is over 2090.

As to `CC(C)CN(C[C@@H](O)[C@H](Cc1ccccc1)NC(=O)[C@H]1CNCCO1)S(=O)(=O)c1ccc(N)cc1`, the IC50 in [7] was 54.3 nM. For the same compound, the 50% cytotoxic concentration (CC50) at 24 h in data set [1] is over 200000 nM. The selectivity ratio in data set [8] was over 3680.

The compound `CC(C)CN(C[C@@H](O)[C@H](Cc1ccccc1)NC(=O)[C@@H]1COCCN1)S(=O)(=O)c1ccc(S(C)(=O)=O)cc1` had a 50% inhibitory concentration (IC50) in [7] of 454 nM. This compound registered a CC50 at 24 h in data set [1] of over 200000 nM. In data set [8], the selectivity ratio is over 440.

Take `CC(C)CN(C[C@@H](O)[C@H](Cc1ccccc1)NC(=O)[C@@H]1COCCN1C)S(=O)(=O)c1ccc(NO)cc1`: the IC50 in data set [7] was 26.7 nM. In [1], this compound gave a half-maximal cytotoxic concentration (CC50) at 24 h of 94600 nM. The selectivity ratio in [8] came to 3550. Besides, the inhibition at 10 µM in data set [10] turned out to be 78%.

Turning to `COc1ccc(S(=O)(=O)N(CC(C)C)C[C@@H](O)[C@H](Cc2ccccc2)NS(=O)(=O)N2CCOCC2)cc1`, half-maximal inhibition in [7] (IC50) required 19.2 nM. In addition, in [1], the 50% cytotoxic concentration (CC50) at 24 h was 60300 nM. In data set [8], the selectivity ratio was 3140.

`CC(C)CN(C[C@@H](O)[C@H](Cc1ccccc1)NC(=O)[C@H]1CNCCO1)S(=O)(=O)c1ccc(NO)cc1` had an IC50 in data set [7] of 34 nM. Further, half-maximal cytotoxicity in data set [1] (CC50 at 24 h) was put at 11200 nM. For the same compound, in [8], the selectivity ratio is 328.

In [7], `CC(C)CN(C[C@@H](O)[C@H](Cc1ccccc1)NC(=O)OC[C@H]1CNCCO1)S(=O)(=O)c1ccc(N)cc1` showed a 50% inhibitory concentration (IC50) of 19.7 nM. This compound also registered a CC50 at 24 h in [1] of 200000 nM. The selectivity ratio in data set [8] is over 10100.

Consider `CC(C)CN(C[C@@H](O)[C@H](Cc1ccccc1)NC(=O)CN1CCS(=O)(=O)CC1)S(=O)(=O)c1ccc(O)cc1`, for which the IC50 in [7] is 10.6 nM. In addition, the 50% cytotoxic concentration (CC50) at 24 h in [1] is over 200000 nM. In addition, the selectivity ratio in data set [8] was over 18800.
